Source: patent publication US10869933B2, “Oligomer-phenothiazine conjugates” (Nektar Therapeutics, priority 2009, dated 2020)
Read-outs that look alike come from different tables or passages of the source.

Tests used:
[1] = target: T1, recombinant human H1 histamine receptor (Homo sapiens, UniProt P35367); test: Histamine H1 receptor radioligand binding; conditions: for Ki: [3H]-Pyrilamine 1.2 nM, human rCHO cell membranes; for Fold change in binding affinity at H1: relative to Promethazine
T1 construct: expressed in transfected cells; host or cells: CHO cells (membranes)
Procedure: (§1) The radioligands used are specific for each receptor subtype and the assay conditions are described in Table 2. […] Ki is obtained using the Cheng Prusoff correction using experimental Kd vales that are determined under these assay conditions.

[2] = target: T2, recombinant human H2 histamine receptor (Homo sapiens, UniProt P25021); test: Histamine H2 receptor radioligand binding; conditions: [125I]-Aminopotentidine 0.1 nM, human rCHO-K1 cell membranes; up to 30 μM
T2 construct: expressed in transfected cells; host or cells: CHO cells (membranes)
Procedure: as §1

[3] = target: T3, recombinant human H3 histamine receptor (Homo sapiens, UniProt Q9Y5N1); test: Histamine H3 receptor radioligand binding; conditions: [3H]R(−)-α-Methylhistamine 3 nM, human rCHO-K1 cell membranes; up to 30 μM
T3 construct: expressed in transfected cells; host or cells: CHO cells (membranes)
Procedure: as §1

[4] = target: T4, recombinant human H4 histamine receptor (Homo sapiens, UniProt Q9H3N8); test: Histamine H4 receptor radioligand binding; conditions: [3H]Histamine 8.2 nM, human rCHO-K1 cell membranes; up to 30 μM
T4 construct: expressed in transfected cells; host or cells: CHO cells (membranes)
Procedure: as §1

[5] = target: T5, recombinant human M2 muscarinic acetylcholine receptor (Homo sapiens, UniProt P08172); test: Muscarinic M2 receptor radioligand binding; conditions: 3H-N-Methylscopolamine 0.8 nM, CHO cell membranes
T5 construct: expressed in transfected cells; host or cells: CHO cells (membranes)
T5 sequence (P08172 1-466): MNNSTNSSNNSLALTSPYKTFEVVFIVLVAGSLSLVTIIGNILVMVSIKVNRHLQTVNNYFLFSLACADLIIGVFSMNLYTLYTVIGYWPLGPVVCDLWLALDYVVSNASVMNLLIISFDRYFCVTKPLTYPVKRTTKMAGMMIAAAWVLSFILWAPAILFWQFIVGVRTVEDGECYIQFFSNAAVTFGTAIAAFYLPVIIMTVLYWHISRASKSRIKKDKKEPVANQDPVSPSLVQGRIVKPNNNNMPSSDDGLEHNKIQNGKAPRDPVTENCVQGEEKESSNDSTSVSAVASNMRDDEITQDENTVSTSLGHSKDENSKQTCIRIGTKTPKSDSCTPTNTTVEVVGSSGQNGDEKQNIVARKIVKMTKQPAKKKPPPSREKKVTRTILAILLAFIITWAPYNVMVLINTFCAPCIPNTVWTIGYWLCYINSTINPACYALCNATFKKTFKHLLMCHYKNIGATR

[6] = target: T6, recombinant human M4 muscarinic acetylcholine receptor (Homo sapiens, UniProt P08173); test: Muscarinic M4 receptor radioligand binding; conditions: 3H-N-Methylscopolamine 0.8 nM, CHO cell membranes
T6 construct: expressed in transfected cells; host or cells: CHO cells (membranes)
T6 sequence (P08173 1-479): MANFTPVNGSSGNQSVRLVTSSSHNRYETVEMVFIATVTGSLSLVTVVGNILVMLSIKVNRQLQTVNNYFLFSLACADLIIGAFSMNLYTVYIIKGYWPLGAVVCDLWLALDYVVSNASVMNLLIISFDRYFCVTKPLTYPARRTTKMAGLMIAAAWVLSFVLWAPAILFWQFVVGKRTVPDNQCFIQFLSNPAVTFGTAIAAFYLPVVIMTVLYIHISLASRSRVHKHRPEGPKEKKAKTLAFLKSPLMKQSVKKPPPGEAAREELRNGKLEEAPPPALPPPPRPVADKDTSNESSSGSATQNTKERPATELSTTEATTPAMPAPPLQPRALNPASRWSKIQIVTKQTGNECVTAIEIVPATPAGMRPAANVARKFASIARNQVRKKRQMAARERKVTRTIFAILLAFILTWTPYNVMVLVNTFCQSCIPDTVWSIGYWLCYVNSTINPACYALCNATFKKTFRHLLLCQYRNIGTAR

[7] = target: T7, recombinant human M5 muscarinic acetylcholine receptor (Homo sapiens, UniProt P08912); test: Muscarinic M5 receptor radioligand binding; conditions: 3H-N-Methylscopolamine 0.8 nM, CHO cell membranes
T7 construct: expressed in transfected cells; host or cells: CHO cells (membranes)
T7 sequence (P08912 1-532): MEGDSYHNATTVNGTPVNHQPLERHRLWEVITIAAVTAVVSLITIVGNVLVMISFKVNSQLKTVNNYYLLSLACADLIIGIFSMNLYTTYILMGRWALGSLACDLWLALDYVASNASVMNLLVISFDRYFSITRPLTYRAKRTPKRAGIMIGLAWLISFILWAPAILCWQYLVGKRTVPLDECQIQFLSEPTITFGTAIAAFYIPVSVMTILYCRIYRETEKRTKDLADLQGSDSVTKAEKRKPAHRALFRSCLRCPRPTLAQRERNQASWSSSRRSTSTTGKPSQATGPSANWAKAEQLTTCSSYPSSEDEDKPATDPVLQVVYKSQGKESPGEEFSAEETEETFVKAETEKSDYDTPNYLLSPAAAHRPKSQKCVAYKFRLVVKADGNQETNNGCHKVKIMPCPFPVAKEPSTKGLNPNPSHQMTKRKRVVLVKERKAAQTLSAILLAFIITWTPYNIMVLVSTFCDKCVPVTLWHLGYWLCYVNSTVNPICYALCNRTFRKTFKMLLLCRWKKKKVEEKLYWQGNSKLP

[8] = pKa determination (Sirius GLpKa); assay type: physicochemical
Procedure: (§2) A blank standardization has to be completed first and passed in order to conduct the compound experiments. The solutions used by the instrument for the blank titration include water, a pH solution, and a surfactant (TRITON X-100). The TRITON X-100 was purchased commercially from Sirus. The 0.5% solution of TRITON X-100 was used in the experiment. In a 1 L volumetric flask 5 mls of TRITON X-100 is added and MILLI Q water to volume. The vessels used by the instrument were filled to ⅓ of their volume with each solution. Therefore the assay tray contains one vessel for water, pH solution, and surfactant for the blank run. The temperature of the water bath for the instrument is 25° C. The blank is calculated as an average of three “good” experiments. The “good” was denoted by a green check mark next to the assay number in the computer software. Once the blank was run successfully the instrument was ready to conduct the experiments.
The pKa had to be determined first in order to calculate the Log P. The ΔPI is used to determine the pKa needed for the Log P experiment followed by the conjugates. Promethazine was first weighed into a vessel. […] The same procedure was followed for each PEG-Promethazine conjugate n=3-9. The vessels were placed in the assay tray of the instrument. A method had to be set up for the pKa run. The experimental parameters are entered into the computer software. These included sample weight, molecular weight, assay type (aqueous pKa), number of assays (three), and titration range (generally 3.5-12). The run was started. There are three measurements for each run that are averaged to obtain the final results from the data points collected in the calculation software. All runs were denoted as “good” by the green check mark next to the assay number.

[9] = Log P determination (Sirius GLpKa); assay type: physicochemical; conditions: Partition Log P, average of three measurements
Procedure: as §2
An additional method has to be set up for the Log P determinations for each compound. […] The vessels are placed in the assay tray of the instrument. The experimental parameters are entered into the computer. These included sample weight, molecular weight, assay type (Partition Log P), number of assays (three), and pKa value of the parent drug from the previous experiment. The run was started. There are three measurements for each run that are averaged to obtain the final results from the data points collected in the calculation software. All runs were denoted as “good” by the green check mark next to the assay number.

Brain:plasma ratio = assay type: in vivo; conditions: rat, brain and plasma, iv; rats, 5 mg/kg intravenously, one hour after injection; brain (ng/g) / plasma (ng/mL)
Procedure: An hour following injection, the animals were sacrificed and plasma and brain were collected and frozen immediately. Following tissue and plasma extractions, concentrations of the compounds in brain and plasma were measured using LC-MS/MS. The brain:plasma ratio was calculated as the ratio of measured concentrations in the brain(ng/g) and plasma (ng/mL).

[10] = test system: CD-1 male mice (visceral pain); test: Analgesic assay: acetic acid writhing; assay type: in vivo; conditions: Dose 10 mg/kg, single pretreatment 30 min before IP 0.5% acetic acid; contractions counted 0-20 min
Procedure: An analgesic assay was used to determine whether a given compound can reduce and/or prevent visceral pain in mice.
Mice were treated according to standard protocols.
Contractions were counted between 0 and 20 minutes after the injection. The animals were used once.

[11] = aqueous solution, read-out: pKa

T2 sequence (P25021 whole entry): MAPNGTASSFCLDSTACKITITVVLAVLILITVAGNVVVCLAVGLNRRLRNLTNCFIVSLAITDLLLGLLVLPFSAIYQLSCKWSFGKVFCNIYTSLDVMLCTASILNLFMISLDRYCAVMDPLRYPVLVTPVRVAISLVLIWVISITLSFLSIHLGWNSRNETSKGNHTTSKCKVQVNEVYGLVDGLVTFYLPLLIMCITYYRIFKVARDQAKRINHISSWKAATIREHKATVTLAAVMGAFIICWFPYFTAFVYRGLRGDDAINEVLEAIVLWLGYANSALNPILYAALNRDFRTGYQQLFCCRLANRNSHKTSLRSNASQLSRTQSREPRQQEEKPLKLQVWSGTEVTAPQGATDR
T4 sequence (Q9H3N8 whole entry): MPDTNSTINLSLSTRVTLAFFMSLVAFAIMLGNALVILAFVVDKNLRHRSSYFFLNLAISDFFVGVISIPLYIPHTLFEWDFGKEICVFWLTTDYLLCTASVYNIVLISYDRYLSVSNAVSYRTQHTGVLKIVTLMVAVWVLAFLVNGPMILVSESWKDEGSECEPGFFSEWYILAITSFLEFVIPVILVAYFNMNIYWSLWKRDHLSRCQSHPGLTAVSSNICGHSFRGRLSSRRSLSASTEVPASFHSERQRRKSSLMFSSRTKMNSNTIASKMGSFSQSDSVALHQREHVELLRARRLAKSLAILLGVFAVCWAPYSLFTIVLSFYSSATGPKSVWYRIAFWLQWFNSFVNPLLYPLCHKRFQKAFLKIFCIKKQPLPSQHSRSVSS
T1 sequence (P35367 whole entry): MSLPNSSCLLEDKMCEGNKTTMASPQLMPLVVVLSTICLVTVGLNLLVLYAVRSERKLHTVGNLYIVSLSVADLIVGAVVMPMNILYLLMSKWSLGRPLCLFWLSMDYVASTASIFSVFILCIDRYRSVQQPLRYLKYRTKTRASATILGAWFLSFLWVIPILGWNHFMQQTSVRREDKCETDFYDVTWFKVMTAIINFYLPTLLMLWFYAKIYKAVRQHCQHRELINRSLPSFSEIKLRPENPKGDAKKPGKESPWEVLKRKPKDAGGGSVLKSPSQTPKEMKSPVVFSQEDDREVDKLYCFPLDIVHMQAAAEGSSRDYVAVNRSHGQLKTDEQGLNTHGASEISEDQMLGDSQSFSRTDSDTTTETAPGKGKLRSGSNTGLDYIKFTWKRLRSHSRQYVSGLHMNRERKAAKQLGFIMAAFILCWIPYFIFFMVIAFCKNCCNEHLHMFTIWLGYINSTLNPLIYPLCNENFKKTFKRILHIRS
T3 sequence (Q9Y5N1 whole entry): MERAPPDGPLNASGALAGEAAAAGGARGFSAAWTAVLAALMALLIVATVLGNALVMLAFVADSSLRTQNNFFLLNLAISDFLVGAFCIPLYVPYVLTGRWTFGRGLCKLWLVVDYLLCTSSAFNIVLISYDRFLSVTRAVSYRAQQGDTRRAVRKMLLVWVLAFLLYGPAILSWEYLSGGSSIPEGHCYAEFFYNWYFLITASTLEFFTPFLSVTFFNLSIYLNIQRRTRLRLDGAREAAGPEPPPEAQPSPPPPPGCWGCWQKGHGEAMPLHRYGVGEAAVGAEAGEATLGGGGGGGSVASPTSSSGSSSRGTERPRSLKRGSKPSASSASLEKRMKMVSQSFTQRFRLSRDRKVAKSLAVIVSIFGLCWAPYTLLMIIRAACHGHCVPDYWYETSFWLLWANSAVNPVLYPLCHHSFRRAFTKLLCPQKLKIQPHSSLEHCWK

| Compound | Ki [1] | Fold change in binding affinity at H1 [1] | Ki [2] | Ki [3] | Ki [4] | Ki [5] | Ki [6] | Ki [7] | pKa [8, 11] | logP ([9]; read-out: LogP) | Kp at 1 h (Brain:plasma ratio) | pKa ([8]; aqueous pKa, 25° C., average of three measurements) | logP [9] | Acetic Acid Writhing Mean (% Morphine) [10] |
| --- | --- | --- | --- | --- | --- | --- | --- | --- | --- | --- | --- | --- | --- | --- |
| COCCOCCOCCOCc1ccc2c(c1)Sc1ccccc1N2CC(C)N(C)C (stereo not shown) [mPEG3-O-Promethazine, mPEG3-O-promethazine] | 7.62 nM | 27.41 | > 30000 nM | > 30000 nM | > 30000 nM | – | – | – | – | – | – | – | – | – |
| CC(CN1c2ccccc2Sc2ccccc21)N(C)C (stereo not shown) [Promethazine, reference compound] | – | – | > 30000 nM | > 30000 nM | > 30000 nM | 26.4 nM | 7.74 nM | 9.34 nM | 8.99 | 3.43 | – | – | – | – |
| COCCOCCOCCOCCOCCN(C)C(C)CN1c2ccccc2Sc2ccccc21 (stereo not shown) [mPEG5-N-Promethazine, mPEG5-N-promethazine] | 8.53 nM | 30.68 | > 30000 nM | > 30000 nM | > 30000 nM | 817 nM | – | – | 8.67 | 3.6 | 0.243 | – | – | – |
| COCCOCCOCCOCCOCCOCCOCCOCCOCCOCc1ccc2c(c1)Sc1ccccc1N2CC(C)N(C)C (stereo not shown) [mPEG9-O-Promethazine, mPEG9-O-promethazine] | 45.1 nM | 162.23 | > 30000 nM | > 30000 nM | > 30000 nM | – | – | – | – | – | – | – | – | – |
| COCCOCCOCCOCCOCCOCCOCCN(C)C(C)CN1c2ccccc2Sc2ccccc21 (stereo not shown) [mPEG7-N-Promethazine, mPEG7-N-promethazine] | 16.9 nM | 60.79 | > 30000 nM | > 30000 nM | > 30000 nM | 90 nM | 435 nM | 905 nM | 8.49 | 3 | 0.112 | – | – | – |
| COCCOCCOCCOCCN(C)C(C)CN1c2ccccc2Sc2ccccc21 (stereo not shown) [mPEG4-N-Promethazine, mPEG4-N-promethazine] | 1.95 nM | 7.01 | > 30000 nM | > 30000 nM | > 30000 nM | – | – | – | 8.45 | 3.51 | 1.86 | – | – | – |
| mPEG8-N-Promethazine | – | – | – | – | – | – | – | – | – | – | – | 8.238 | 2.648 | – |
| COCCOCCOCCOCCOCCOCCOCCOCc1ccc2c(c1)Sc1ccccc1N2CC(C)N(C)C (stereo not shown) [mPEG7-O-Promethazine, mPEG7-O-promethazine] | 33.2 nM | 119.42 | > 30000 nM | > 30000 nM | > 30000 nM | – | – | – | – | – | – | – | – | – |
| COCCOCCOCCOCCOCCOCc1ccc2c(c1)Sc1ccccc1N2CC(C)N(C)C (stereo not shown) [mPEG5-O-Promethazine, mPEG5-O-promethazine] | 7.16 nM | 25.76 | > 30000 nM | > 30000 nM | > 30000 nM | – | – | – | – | – | – | – | – | – |
| COCCOCCOCCOCCOCCOCCN(C)C(C)CN1c2ccccc2Sc2ccccc21 (stereo not shown) [mPEG6-N-Promethazine, mPEG6-N-promethazine] | 13.2 nM | 47.48 | > 30000 nM | > 30000 nM | > 30000 nM | 337 nM | – | 1740 nM | 8.53 | 3.25 | 0.098 | – | – | – |
| mPEG9-N-promethazine | – | – | > 30000 nM | > 30000 nM | – | 308 nM | – | – | – | – | – | – | – | −59.69 % Morphine |
| COCCOCCOCCN(C)C(C)CN1c2ccccc2Sc2ccccc21 (stereo not shown) [mPEG3-N-Promethazine, mPEG3-N-promethazine] | 2.28 nM | 8.20 | > 30000 nM | > 30000 nM | > 30000 nM | – | – | – | 8.4 | 3.65 | – | – | – | – |
